Assay results published in EP3246445A1, “LIPOXIN A4 DELIVERY SYSTEM BY A POROUS ELECTROSPUN POLYMERIC MEMBRANE” (Universita' Degli Studi G. D Annunzio Chieti - Pescara, priority 2016, dated 2017).

Columns and labels:
hPDLSCs = assay: Proliferation assay with LXA4 released from PEO/PDLLA membrane; format: cell-based, Human; conditions: LXA4 eluted from PEO/PDLLA membranes in PBS
Procedure: Bioptic samples of periodontal ligament were obtained from volunteers aged 20-35 years, exempt from systemic or oral disease, after undesigning the informed consent deed. The study was approved by the Medical Ethic Committee of the "G. D'Annunzio" University, Chieti, Italy (n°266/17.04.14). The periodontal tissue obtained by bioptic samples, grinded and washed several times with PBS (Lonza, Basel, Switzerland) was cultured using TheraPEAK™MSCGM-CD™ BulletKit serum free (MSCGM-CD) medium for the growth of human mesamchimal steam cells (MSCGM-CD) (Lonza), to minimize the exposure to substances of non-human origin. Human periodontal ligament stem cells (hPDLSCs) were obtained and cultured as reported in Trubiani O, Piattelli A, Gatta V, Marchisio M, Diomede F, D'Aurora M, et al. Assessment of an efficient xeno-free culture system of human periodontal ligament stem cells. […]
For the proliferation assay with LXA4 released from PEO/PDLLA membrane, hPDLSCs (2 x 10^3 cells/well) were seeded in 96-well microplates with complete medium overnight at 37 °C and 5%CO2. […] Data were expressed as proliferation index, calculated as the ratio between values from cells exposed to membrane-eluted LXA4 and from cells exposed to vehicle only (ethanol) of LXA4. […]
The proliferation and migration of hPDLSC growth a direct contact with fragment of LXA4-loaded membrane were evaluated. […]

[1] = Release of LXA4 from PEO/PDLLA membranes in PBS, RP-HPLC; format: physicochemical
Procedure: The release of LXA4 from the membrane was evaluated using phosphate-buffered saline solution (PBS) (pH 7.4, at 37°C). Pieces (3 cm x 2.5 cm, ∼33 mg, sample) of membranes, empty or LXA4-loaded, were placed in 100 mm dishes containing PBS (8 mL) and maintained at 37 °C, 5% CO2 and 95% humidity for 1, 3, 18, 48, 72 and 96 h. LXA4 release was assessed by HPLC analysis after solid phase extraction. Following incubation with PBS, membranes were diluted with 2 volumes of cold MeOH and stored at -80°C until extraction. All samples were extracted using C-18 cartridges (Bond Elut Varian, Agilent Technologies, Milan) as previously described (Romano M, Luciotti G, Gangemi S, Marinucci F, Prontera C, D'Urbano E, et al. Urinary excretion of lipoxin A(4) and related compounds: development of new extraction techniques for lipoxins. Laboratory investigation; a journal of technical methods and pathology. 2002;82(9):1253-4). Before extraction, PGB2 (50 ng/sample) was added to each sample as internal standard to calculate extraction recovery. Samples were then taken to dryness using a rotary evaporator, suspended in 10 mL of deionized (dd) H2O containing MeOH, acidified to pH 3.5 and rapidly loaded onto C-18 columns previously equilibrated with MeOH and (dd) H2O. After sample loading, columns were washed with (dd) H2O to restore a neutral pH. Samples were eluted with 7 mL of methyl formate and taken to dryness using a Speedvac apparatus. The dried samples were then suspended in MeOH (100 µl) and injected into an HPLC apparatus (Agilent 1100) equipped reverse phase-HPLC with a Hypersil C-18 column (300 mm x 4 mm x 5 µm, Waters) and a photodiode array detector (Waters) for online UV spectroscopy. LXA4 was identified by UV spectroscopy and considering the chromatographic retention time.
LXA4 releasing from the PEO/PDLLA membranes was investigated by incubating membranes with a PBS solution at pH 7.4 for varying times. LXA4 was quantitated by RP-HPLC. […] The maximum release was observed after 48 h (17%), followed by a progressive decrement at 72 h and 96 h (around 11%). Approximately 25% of LXA4 was recovered as trans isomer, in line with the content of Romano M, Serhan CN. Lipoxin generation by permeabilized human platelets. Biochemistry.

Question: Which “biological activities on hPDLSCs after release” value (hPDLSCs) does the source give for CCCCC[C@H](O)/C=C/C=C\C=C\C=C\[C@@H](O)[C@@H](O)CCCC(=O)O [LXA4, Lipoxin A4] here?
Answer: retained its biological activities on hPDLSCs

Question: And the LXA4 released ([1]; PBS pH 7.4, 37 °C, 72 h)?
Answer: around 11%

Question: And the LXA4 released ([1]; PBS pH 7.4, 37 °C, 96 h)?
Answer: around 11%

Question: And the “LXA4 released, maximum release” value ([1]; PBS pH 7.4, 37 °C, after 48 h)?
Answer: 17%

Question: What about the “LXA4 released, of the total LXA4 added to membranes” value ([1]; PBS pH 7.4, 37 °C, within 3 h) of the same molecule?
Answer: approximately 15%

Question: What about the “LXA4 recovered as trans isomer” value ([1]; of the total LXA4 eluted from the membranes) of the same molecule?
Answer: Approximately 25%
